Non-standard residues stand in square brackets, D forms with d. Residues, ends and D or L forms follow the SMILES beside them. No end group written: not given here. *: point of attachment. X1 = O=C(NCCCN*)c1ccc(-c2n[nH]c3ccccc23)cc1
Legend:
JNK1 [1] = target: T1, JNK1 (Homo sapiens, UniProt P45983); assay: DELFIA assay: displacement of biotinylated pepJIP1 (L-JIP1 peptide) from GST-JNK1; assay type: binding; conditions: for Delfia Assay (Displacement of L-JIP1 peptide from JNK), ND class: Table 1, ND with footnote
T1 sequence (P45983 whole entry, species assumed, the tested form may be a part): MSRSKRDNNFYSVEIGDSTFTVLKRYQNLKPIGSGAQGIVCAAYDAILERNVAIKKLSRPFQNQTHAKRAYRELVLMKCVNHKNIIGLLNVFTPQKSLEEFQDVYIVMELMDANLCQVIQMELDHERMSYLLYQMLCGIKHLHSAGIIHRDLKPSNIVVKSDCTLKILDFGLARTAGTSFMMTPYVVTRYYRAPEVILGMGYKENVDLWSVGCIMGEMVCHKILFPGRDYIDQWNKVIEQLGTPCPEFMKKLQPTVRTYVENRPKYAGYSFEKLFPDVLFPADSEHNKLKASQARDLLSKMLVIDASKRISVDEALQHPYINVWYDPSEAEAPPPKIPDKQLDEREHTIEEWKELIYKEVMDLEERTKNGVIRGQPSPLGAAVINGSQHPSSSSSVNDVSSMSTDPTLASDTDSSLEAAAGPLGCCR
Protocol: In order to define an optimal interacting docking peptide sequence for JNK, twenty peptide sequences were tested, which were derived from its putative substrates and scaffolding proteins, all presenting a D-domain consensus motif. Each peptide was tested for its ability to displace pepJIP1 (residues 153-164) from JNK1 by using a Dissociation Enhanced Lanthanide Fluoro-Immuno Assay (DELFIA) platform. DELFIA is a heterogeneous assay whereby a biotin-linked pepJIP1 is adsorbed onto a streptavidin-coated plate followed by incubation with GST-JNK1. Detection of the pepJIP1/GST-JNK1 complex is facilitated by a highly fluorescent anti-GST Eu-antibody conjugate (Perkin-Elmer).
DELFIA Assay (dissociation enhanced lanthanide fluoro-immuno assay). […] After 1 hr incubation and elimination of unbound biotin-pepJIP1 by 3 washing steps, 87 μL of Eu-labeled anti-GST antibody solution (300 ng/ml; 1.9 nM), 2.5 μL DMSO solution containing test compound, and 10 μL solution of GST-JNK1 for a final protein concentration of 10 nM was added. After 1 hr incubation at 0° C., each well was washed 5 times to eliminate unbound protein and the Eu-antibody if displaced by a test compound. Subsequently, 200 μL of enhancement solution (Perkin-Elmer) was added to each well and fluorescence measured after 10 min incubation (excitation wavelength, 340 nm; emission wavelength, 615 nm). Controls include unlabeled peptide and blanks receiving no compounds. Protein and peptide solutions were prepared in DELFIA buffer (Perkin-Elmer).

JNK1 [2] = target: T1, JNK1; assay: LanthaScreen TR-FRET in vitro kinase activity assay, JNK1 phosphorylation of ATF2; assay type: biochemical; conditions: for Kinase Activity Assay (JNK), ND class: Table 1, ND with footnote
Protocol: LanthaScreen™ In vitro Kinase Assay. LanthaScreen™ assay platform from Invitrogen was utilized. The time-resolved fluorescence resonance energy transfer assay (TR-FRET) was performed in 384 well plates. Each well received JNK1 (100 ng/mL), ATF2 (200 nM), and ATP (1 μM) in 50 mM HEPES, 10 mM MgCl2, 1 mM EGTA and 0.01% Brij-35, pH 7.5 and test compounds. The kinase reaction was performed at room temperature for 1 hr. After this time, the terbium labeled antibody and EDTA were added into each well. After an additional hour incubation, the signal was measured at 520/495 nm emission ratio on a BMG Pherastar fluorescence plate reader.

p38α = p38α (Homo sapiens, UniProt Q16539); assay: LanthaScreen kinase activity assay with ATF2 substrate versus p38α; assay type: biochemical
Sequence of p38α (Q16539 whole entry, the tested form may be a part): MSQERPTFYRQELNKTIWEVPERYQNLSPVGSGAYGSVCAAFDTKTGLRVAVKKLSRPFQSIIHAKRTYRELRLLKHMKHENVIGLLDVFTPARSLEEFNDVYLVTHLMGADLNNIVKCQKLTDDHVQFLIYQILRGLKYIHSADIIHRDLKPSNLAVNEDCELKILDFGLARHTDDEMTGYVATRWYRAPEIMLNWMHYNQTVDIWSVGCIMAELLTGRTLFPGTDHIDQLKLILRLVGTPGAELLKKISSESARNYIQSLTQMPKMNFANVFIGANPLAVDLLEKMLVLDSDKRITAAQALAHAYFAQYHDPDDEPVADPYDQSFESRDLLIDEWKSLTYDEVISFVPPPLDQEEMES
Protocol: In order to confer further favorable pharmacological properties to this compound for in vivo studies, analogous to the clinical candidate D-JNK1^15, an all-D retro-inverso version of BI77B8 fused to the cell penetrating HIV-TAT sequence was prepared. […] LanthaScreen™ In vitro Kinase Assay. LanthaScreen™ assay platform from Invitrogen was utilized. The time-resolved fluorescence resonance energy transfer assay (TR-FRET) was performed in 384 well plates. […] After this time, the terbium labeled antibody and EDTA were added into each well. After an additional hour incubation, the signal was measured at 520/495 nm emission ratio on a BMG Pherastar fluorescence plate reader.

[3] = Table 3, read-out: pepJIP Displacement IC50
[4] = JNK1, ATF2 substrate, read-out: Kinase Inhibition IC50
[5] = Table 2, read-out: IC50 (μM), Kinase Assay
[6] = Table 1, read-out: Delfia Assay (Displacement of L-JIP1 peptide from JNK) IC50
[7] = Table 1, read-out: Kinase Activity Assay (JNK) IC50

Ac-LNLGG-OH
Delfia Assay (Displacement of L-JIP1 peptide from JNK), ND class (JNK1 [1]): ND^*) (In the Delfia Assay, no displacement up to 100 μM) | Kinase Activity Assay (JNK), ND class (JNK1 [2]): ND^*) (in the Kinase Assay, no activity at 25 μM)

Ac-RPTTLNL-OH [BI-77F10, Ac-RPTTLNL-OH]
IC50 (JNK1 [1]; [3]): 4.5 µM | IC50 (JNK1 [2]; [4]): > 50 µM | Inhibition of JNK1 phosphorylation of ATF2 (JNK1 [2]; at concentrations up to 25 μM): unable to inhibit

CC(C)(C)OC(=O)NCCCCCNC(=O)c1ccc(-c2n[nH]c3ccccc23)cc1
IC50 (JNK1 [2]; [5]): 2.3 µM

NCCCNC(=O)c1ccc(-c2n[nH]c3ccc(NC(=O)Cc4cccs4)cc23)cc1
IC50 (JNK1 [2]; [5]): 1.9 µM

Ac-PTTLNLGG-OH
Delfia Assay (Displacement of L-JIP1 peptide from JNK), ND class (JNK1 [1]): ND^*) (In the Delfia Assay, no displacement up to 100 μM) | Kinase Activity Assay (JNK), ND class (JNK1 [2]): ND^*) (in the Kinase Assay, no activity at 25 μM)

CC(C)CC(NC(=O)C(CC(N)=O)NC(=O)C(CC(C)C)NC(=O)C(NC(=O)C(NC(=O)C1CCCN1C(=O)C(N)CCCNC(=N)N)C(C)O)C(C)O)C(=O)NCC(=O)NCC(=O)NCCCNC(=O)c1ccc(-c2n[nH]c3ccccc23)cc1 (centres unmarked) [BI-77B8] (H-RPTTLNLGG-X1; configuration not given here)
Affinity in competition with pepJIP1 for JNK1 binding (JNK1 [1]): sub-nanomolar | IC50 (JNK1 [1]; [3]): 0.9 µM | Affinity in inhibition of JNK1 kinase activity (JNK1 [2]): sub-nanomolar | IC50 (JNK1 [2]; [4]): 0.7 µM | Improvement of kinase inhibition compared with pepJIP1 (JNK1 [2]; direct comparison with pepJIP1): over 100 fold

COC(=O)c1ccc(-c2n[nH]c3ccccc23)cc1
IC50 (JNK1 [2]; [5]): 9.7 µM

Ac-LNL-OH
Delfia Assay (Displacement of L-JIP1 peptide from JNK), ND class (JNK1 [1]): ND^*) (In the Delfia Assay, no displacement up to 100 μM) | Kinase Activity Assay (JNK), ND class (JNK1 [2]): ND^*) (in the Kinase Assay, no activity at 25 μM)

CC(C)(C)OC(=O)NCCCNC(=O)c1ccc(-c2n[nH]c3ccc(NC(=O)Cc4cccs4)cc23)cc1
IC50 (JNK1 [2]; [5]): 1.2 µM

RPKRPTTLNLF
IC50 (JNK1 [1]; [6]): 2.9 µM | IC50 (JNK1 [2]; [7]): 0.423 µM | Kinase Activity Assay (p38[…]) % at 50 μM (p38α): 6% at 50 μM

AcGRKKRRQRRRGGRPTTLNLGG (Ac-GRKKRRQRRRGGRPTTLNLGG)
Kinase Activity Assay (JNK) % inhibition (JNK1 [2]; at 50 μM): 90% | Kinase Activity Assay (p38[…]) % at 50 μM (p38α): 6% at 50 μm

COC(=O)CCCNC(=O)c1ccc(-c2n[nH]c3ccccc23)cc1
IC50 (JNK1 [2]; [5]): 0.9 µM

Ac-tdqsrpvqpflnlttprrprpprrrqrrkkrg-OH [D-JNKI]
IC50 (JNK1 [1]; [3]): ~10 µM | IC50 (JNK1 [2]; [4]): > 50 µM

Ac-RPTTLNLGG-OH
IC50 (JNK1 [1]; [6]): 18 µM | inhibition at 50 µM (JNK1 [2]; at 50 μM, read-out: Kinase Activity Assay (JNK) % inhibition): 25%

CN1CCN(CCC(=O)NCCCCCNC(=O)c2ccc(-c3n[nH]c4ccccc34)cc2)CC1
IC50 (JNK1 [2]; [5]): 4.5 µM

NCCCNC(=O)c1ccc(-c2n[nH]c3ccccc23)cc1
Delfia Assay (Displacement of L-JIP1 peptide from JNK), ND class (JNK1 [1]): ND^*) (In the Delfia Assay, no displacement up to 100 μM)

GGLNLTTPRGGRRRQRRKKRG-NH2 (GG[dL][dN][dL][dT][dT][dP][dR]GG[dR][dR][dR][dQ][dR][dR][dK][dK][dR]G-NH2)
Kinase Activity Assay (JNK) % inhibition (JNK1 [2]; at 50 μM): 11% | Kinase Activity Assay (p38[…]) % at 50 μM (p38α): 0% at 50 μm

CC(C)(C)OC(=O)NCCCNC(=O)c1ccc(-c2n[nH]c3ccccc23)cc1
Delfia Assay (Displacement of L-JIP1 peptide from JNK), ND class (JNK1 [1]): ND^*) (In the Delfia Assay, no displacement up to 100 μM) | IC50 (JNK1 [2]; [7]): 3.5 µM

Compound I (RPTTLNLGG; also: conjugate per reaction scheme A)
Inhibitor activity compared with peptide Ac-RPTTLNLGG-OH and product 8 (JNK1 [1]; FIGS. 1A-1D, Delfia Assay): substantially more active | ATP competition analysis (JNK1 [2]; FIGS. 2A, 2B): competitive, at least to some extent | ATF2 competition analysis (JNK1 [2]; FIGS. 2C, 2D): competitive, at least to some extent | Selectivity relative to p38a (p38α; FIGS. 3A, 3B): good selectivity
